Laboratory results: patent US9763942B2, “Serine/threonine kinase inhibitors” (Array BioPharma Inc., priority 2013, dated 2017)

Each compound was assayed against T1, human ERK-2 (Mitogen Activated Kinase 1) (Homo sapiens, UniProt P28482) (assay: ERK-2 Enzymatic Assay). Conditions: 5 nM ERK-2 enzyme, 25 μM ATP (observed Km), Omnia peptide S/T17; single assay or mean of multiple assays; read-out: Biological Example 1 IC50.
T1 construct: n-terminal 6-His fusion protein in E. coli and corresponding to aa 8-360; 6-His (N); made in house; host or cells: E. coli
T1 sequence (P28482 8-360): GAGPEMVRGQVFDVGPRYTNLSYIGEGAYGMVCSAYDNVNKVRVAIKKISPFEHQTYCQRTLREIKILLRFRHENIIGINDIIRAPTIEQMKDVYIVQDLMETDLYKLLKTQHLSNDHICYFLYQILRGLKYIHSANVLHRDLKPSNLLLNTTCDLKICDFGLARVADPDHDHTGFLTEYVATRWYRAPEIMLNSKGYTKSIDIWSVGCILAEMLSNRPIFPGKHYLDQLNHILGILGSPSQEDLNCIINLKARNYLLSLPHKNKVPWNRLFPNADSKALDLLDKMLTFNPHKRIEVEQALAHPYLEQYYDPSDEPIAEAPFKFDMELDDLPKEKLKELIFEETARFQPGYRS
Assay type: biochemical
Description: Table 1 contains representative data for Examples disclosed herein.

IC50	Compound
0.511 µM	COc1ncc(F)cc1N1CC[C@H](n2nnc3cc(-c4ccnc(Nc5ccnn5C)n4)ccc32)C1 [Example 81, (S)-4-(1-(1-(5-fluoro-2-methoxypyridin-3-yl)pyrrolidin-3-yl)-1H-benzo[d][1,2,3]triazol-5-yl)-N-(1-methyl-1H-pyrazol-5-yl)pyrimidin-2-amine]

Same assay, conditions: ERK-2 enzymatic assay; read-out: IC50

IC50	Compound
< 0.1 µM	COc1ncccc1Cn1nnc2cc(-c3ccnc(Nc4ccnn4C)n3)ccc21 [Example 67, 4-(1-((2-methoxypyridin-3-yl)methyl)-1H-benzo[d][1,2,3]triazol-5-yl)-N-(1-methyl-1H-pyrazol-5-yl)pyrimidin-2-amine]
< 0.1 µM	Cn1nccc1Nc1nccc(-c2ccc3c(c2)nnn3Cc2ccc(F)cc2F)n1 [Example 123]
< 0.1 µM	Cn1nccc1Nc1nccc(-c2ccc3c(c2)nnn3CCc2cccc(Cl)c2)n1 [Example 50, 4-(1-(3-chlorophenethyl)-1H-benzo[d][1,2,3]triazol-5-yl)-N-(1-methyl-1H-pyrazol-5-yl)pyrimidin-2-amine]
< 0.1 µM	COc1cccc(F)c1CN1CC(n2nnc3cc(-c4ccnc(Nc5ccnn5C)n4)ccc32)C1 [Example 88, 4-(1-(1-(2-fluoro-6-methoxybenzyl)azetidin-3-yl)-1H-benzo[d][1,2,3]triazol-5-yl)-N-(1-methyl-1H-pyrazol-5-yl)pyrimidin-2-amine]
< 0.1 µM	Cn1nccc1Nc1nccc(-c2ccc3c(c2)nnn3[C@@H]2CNC[C@H]2c2ccc(F)c(F)c2)n1 [Example 78, 4-(1-((3S,4R)-4-(3,4-difluorophenyl)pyrrolidin-3-yl)-1H-benzo[d][1,2,3]triazol-5-yl)-N-(1-methyl-1H-pyrazol-5-yl)pyrimidin-2-amine]
< 0.1 µM	CC(C)Cn1nnc2cc(-c3ccnc(Nc4ccnn4C)n3)cnc21 [Example 114, 4-(3-isobutyl-3H-[1,2,3]triazolo[4,5-b]pyridin-6-yl)-N-(1-methyl-1H-pyrazol-5-yl)pyrimidin-2-amine]
< 0.1 µM	COc1ccc([C@@H](c2cnnn2C)n2nnc3cc(-c4ccnc(Nc5ccnn5C)n4)ccc32)cc1F [Example 71, (S)-4-(l-((3-fluoro-4-methoxyphenyl)(1-methyl-1H-1,2,3-triazol-5-yl)methyl)-1H-benzo[d][1,2,3]triazol-5-yl)-N-(1-methyl-1H-pyrazol-5-yl)pyrimidin-2-amine]
< 0.1 µM	COc1ccc(Cn2nnc3cc(-c4ccnc(NC5CCOCC5)n4)ccc32)cc1F [Example 110, 4-(1-(3-fluoro-4-methoxybenzyl)-1H-benzo[d][1,2,3]triazol-5-yl)-N-(tetrahydro-2H-pyran-4-yl)pyrimidin-2-amine]
< 0.1 µM	Cn1nccc1Nc1cc(-c2cnc3c(c2)nnn3Cc2cccc(Cl)c2)ccn1 [Example 115, 4-(3-(3-chlorobenzyl)-3H-[1,2,3]triazolo[4,5-b]pyridin-6-yl)-N-(1-methyl-1H-pyrazol-5-yl)pyridin-2-amine]
< 0.1 µM	COc1ccc(Cn2nnc3cc(-c4ccnc(NC(C)(C)CN5CCOCC5)n4)ccc32)cc1F [Example 23, 4-(1-(3-fluoro-4-methoxybenzyl)-1H-benzo[d][1,2,3]triazol-5-yl)-N-(2-methyl-1-morpholinopropan-2-yl)pyrimidin-2-amine]
< 0.1 µM	COc1ccc(Cn2nnc3cc(-c4ccnc(Nc5cc(C6CC6)nn5C)n4)ccc32)cc1F [Example 25, N-(3-cyclopropyl-1-methyl-1H-pyrazol-5-yl)-4-(1-(3-fluoro-4-methoxybenzyl)-1H-benzoyl[d][1,2,3]triazol-5-yl)pyrimidin-2-amine]
< 0.1 µM	Cn1nccc1Nc1nccc(-c2ccc3c(c2)nnn3C2CCc3cc(Cl)ccc32)n1 (centres unmarked) [Example 59, 4-(1-(5-chloro-2,3-dihydro-1H-inden-1-yl)-1H-benzo[d][1,2,3]triazol-5-yl)-N-(1-methyl-1H-pyrazol-5-yl)pyrimidin-2-amine]
< 0.1 µM	Clc1ccc(Cn2nnc3cc(-c4ccnc(NC5CCOCC5)n4)ccc32)cc1 [Example 112]
